{"source": "patent US8785425B2", "about": "“11β-hydroxyandrosta-4-ene-3-ones” (Sun Pharma Advanced Research Company Ltd., priority 2006, dated 2014)", "key": {"glucocorticoid receptors": {"molecular_target": "T1, glucocorticoid receptors (Homo sapiens, UniProt P04150)", "T1 construct": "host or cells: Human HeLa cells", "T1 sequence (P04150 1-777)": "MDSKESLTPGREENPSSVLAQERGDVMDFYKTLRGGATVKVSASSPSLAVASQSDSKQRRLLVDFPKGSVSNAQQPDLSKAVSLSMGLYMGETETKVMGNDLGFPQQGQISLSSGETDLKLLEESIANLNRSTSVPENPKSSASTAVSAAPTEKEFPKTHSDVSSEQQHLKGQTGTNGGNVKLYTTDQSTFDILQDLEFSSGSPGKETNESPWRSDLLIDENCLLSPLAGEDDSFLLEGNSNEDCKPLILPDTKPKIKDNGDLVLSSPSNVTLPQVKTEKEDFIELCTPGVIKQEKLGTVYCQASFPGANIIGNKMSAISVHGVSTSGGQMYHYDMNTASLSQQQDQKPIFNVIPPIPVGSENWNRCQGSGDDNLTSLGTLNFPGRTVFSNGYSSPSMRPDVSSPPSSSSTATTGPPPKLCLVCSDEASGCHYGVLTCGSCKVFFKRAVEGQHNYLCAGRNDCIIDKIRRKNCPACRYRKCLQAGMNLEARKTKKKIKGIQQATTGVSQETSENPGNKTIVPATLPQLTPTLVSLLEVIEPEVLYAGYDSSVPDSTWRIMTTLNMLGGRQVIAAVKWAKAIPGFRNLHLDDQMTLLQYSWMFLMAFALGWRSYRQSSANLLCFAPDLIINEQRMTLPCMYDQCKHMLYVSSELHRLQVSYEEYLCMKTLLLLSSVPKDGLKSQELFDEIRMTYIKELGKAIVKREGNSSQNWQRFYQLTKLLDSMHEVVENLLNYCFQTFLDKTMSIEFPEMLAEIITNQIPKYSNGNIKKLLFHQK", "assay": "Glucocorticoid receptor binding assay ([3H]dexamethasone radioligand)", "conditions": "% inhibition at 10 nM, HeLa cells transfected with glucocorticoid receptors", "method": "The steroid receptor binding assay were performed by MDS Pharma Services at their Taipei (Taiwan) pharmacology laboratory.\nThe activity of test compounds on glucocorticoid receptor was assessed using radioligand binding assays. […] Free [^3H]dexamethasone was removed from the medium by centrifugation and concentration of receptor bound ligand was determined in the supernatant by liquid scintillation counting.\nThe % inhibition was evaluated using a single concentration of test compound and the corresponding radiolabeled ligand. Results are presented as the percent inhibition of specific binding. The values are average of duplicate determinations for each concentration."}, "in vivo": {"assay": "in vivo", "conditions": "SD, rat, thymus, other: intratracheal", "method": "(§1) Sephadex G-200 was prepared in sterile saline (10 mg/ml) and allowed to swell for at least 3 days at room temperature. Test compounds were prepared as suspensions by grinding and sonicating the solid in chilled saline. All the compounds were administered intratracheally at 24 hrs and 2 hrs prior to intratracheal administration of Sephadex (5 mg/kg) under light ether anesthesia. Vehicle control animals were administered vehicle instead of Sephadex. At 24 hr after Sephadex instillation, lung and thymus were excised from individual animals and weighed. Wet weight of lung and thymus was corrected for 100 g of initial body weight. The percentage increase in lung weight caused by Sephadex and its inhibitions by the compounds, were calculated. The percentage inhibitions of thymus compared to vehicle control group were also calculated."}, "[1]": {"test_system": "Sephadex induced lung edema", "assay": "animal or person", "method": "as §1"}, "[2]": {"test_system": "liver glycogen deposition", "assay_type": "in vivo, Male Sprague Dawley rats", "conditions": "3 mg/kg intratracheally, 2 doses 24 hrs apart, adrenalectomized rats", "method": "Male Sprague Dawley rats, weighing 190-220 g were bilaterally adrenalectomized and maintained on 0.9% saline solution throughout the experiment. On day 5th and 6th of adrenalectomy, animals were made into different groups, test compounds prepared in cold saline (sonicated for 30 min) were instilled intratracheally 2 doses@3 mg/kg, 24 hrs apart. At 15 hrs after the last treatment, animals were sacrificed and livers were excised and weighed. The glycogen content of the livers was determined by anthrone method. Briefly, a weighed quantity of liver tissue was homogenized with 5% trichloroacetic acid, supernatant mixed with ethanol and kept overnight for precipitation. The glycogen thus extracted was estimated as glucose generated after acid hydrolysis by addition of anthrone reagent at 620 nm. Glycogen content was expressed as mg/100 g liver."}, "[3]": {"conditions": "dose 3000 mcg/kg intratracheally, SD rat"}}, "data": [{"molecule": "CCCC1O[C@@H]2C[C@H]3[C@@H]4CCC5=CC(=O)C=C[C@]5(C)[C@H]4[C@@H](O)C[C@]3(C)[C@]2(C(=O)CO)O1", "note": "(stereo partly drawn) [Budesonide, (11β,16α)-16,17-[Butylidenebis(oxy)]-11,21-dihydroxypregna-1,4-diene-3,20-dione]", "values": [{"measurement": "inhibition at 0.01 µM", "setting": "glucocorticoid receptors", "result": 85, "unit": "%"}, {"measurement": "ED50 at 24 h", "setting": "in vivo", "result": 0.68, "unit": "mg/kg"}, {"measurement": "ED50", "setting": "[1]; Rattus norvegicus, inhaled or nasal, read-out: ED50 Lung edema", "result": 0.101, "unit": "mg/kg"}, {"measurement": "Mean % inhibition Lung edema", "setting": "[1]; [3]", "result": 119.38, "unit": "%"}, {"measurement": "Mean % inhibition Thymus", "setting": "[1]; [3]", "result": 67.08, "unit": "%"}, {"measurement": "% Inhibition of thymus", "setting": "[2]", "result": 65.02, "unit": "%"}, {"measurement": "Glycogen content", "setting": "[2]", "result": 552.77, "unit": "mg/100 g liver"}]}]}
